Test results from PMC4749975, “Selective binding modes and allosteric inhibitory effects of lupane triterpenes on protein tyrosine phosphatase 1B” (Scientific Reports, 2016).
Entries after “also recorded” stand apart in the source; their conditions may differ. Read-outs that look alike come from different tables or passages of the source.

Columns and labels:
[1] = biological target: T1, recombinant human TCPTP protein (Homo sapiens, UniProt P17706); test: Inhibiting TCPTP by pNPP phosphatase assay; assay type: biochemical; details: for Fold changes (TCPTP IC50 / PTP1B IC50): PTP1B IC50 from literature, TCPTP IC50 measured
T1 construct: purchased Abcam Inc (Cambridge, MA) ab42575
T1 sequence (P17706 1-415): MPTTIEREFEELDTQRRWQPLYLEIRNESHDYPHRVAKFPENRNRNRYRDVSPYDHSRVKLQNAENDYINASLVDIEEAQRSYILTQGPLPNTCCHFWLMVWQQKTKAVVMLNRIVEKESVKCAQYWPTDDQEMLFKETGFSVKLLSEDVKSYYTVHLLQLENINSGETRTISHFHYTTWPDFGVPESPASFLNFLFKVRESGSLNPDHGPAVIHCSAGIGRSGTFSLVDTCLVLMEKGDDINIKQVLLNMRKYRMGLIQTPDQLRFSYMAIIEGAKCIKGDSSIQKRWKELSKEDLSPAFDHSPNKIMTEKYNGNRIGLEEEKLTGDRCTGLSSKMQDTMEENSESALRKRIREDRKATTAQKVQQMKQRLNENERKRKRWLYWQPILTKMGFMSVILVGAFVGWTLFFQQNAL

PTP1B [2] = biological target: T2, PTP1B (Mus musculus, UniProt P35821); test: Immunoprecipitation assay of PTP1B activity in TNFα-treated mHypoE-46 neurons; assay type: cell-based
T2 construct: endogenous in cells; host or cells: mHypoE-46 mouse hypothalamic neurons
T2 sequence (P35821 1-432): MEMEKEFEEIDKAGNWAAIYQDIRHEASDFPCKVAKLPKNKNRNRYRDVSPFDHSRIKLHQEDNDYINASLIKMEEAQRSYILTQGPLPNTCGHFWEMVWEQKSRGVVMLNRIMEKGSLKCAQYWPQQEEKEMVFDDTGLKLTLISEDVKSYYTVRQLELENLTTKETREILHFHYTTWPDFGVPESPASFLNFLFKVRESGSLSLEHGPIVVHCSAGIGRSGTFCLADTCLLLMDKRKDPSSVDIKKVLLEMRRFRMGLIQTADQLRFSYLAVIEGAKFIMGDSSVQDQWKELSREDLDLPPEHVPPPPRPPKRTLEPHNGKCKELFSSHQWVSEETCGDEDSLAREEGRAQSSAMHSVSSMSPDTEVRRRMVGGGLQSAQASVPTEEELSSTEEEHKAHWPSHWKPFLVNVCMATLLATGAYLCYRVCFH
Experimental: (§1) Mouse hypothalamic cell line (mHypoE-46) neurons were grown in monolayer in Dulbecco’s modified Eagle medium (DMEM) (Sigma D5796, Castle Hill, NSW) with 10% fetal bovine serum (FBS) (SAFC Biosciences Inc, Lenexa, KS) and 1% penicillin/streptomycin. They were maintained at 37 °C with 5% CO2. Prior to treatment, the cell culture medium was replaced with DMEM containing 1% penicillin/streptomycin for 4 h. Murine TNFα was obtained from Sigma-Aldrich (Castle Hill, NSW). Lupeol and betulinic acid were dissolved in Dimethyl sulfoxide (DMSO), then diluted in sterile water, and mixed with serum free cell culture medium. The DMSO concentration was controlled below 0.15%.
Based on the instructions of the Pierce Classic IP Kit (#26146, Thermo Fisher Scientific Inc, IL) with minor modifications, PTP1B was immunoprecipitated using the 25 μg PTP1B antibody (sc-1718, Santa Cruz Biotechnology Inc, Dallas, TX) for 12 h at 4 °C. Immune complexes were isolated by adding the protein G-agarose, washed three times in the phosphatase assay buffer from the EnzoLyte Colorimetric pNPP Protein Phosphatase Assay kit (Anaspec, San Jose, CA), and resuspended in the same buffer. Samples were analysed for the phosphatase activity using the same pNPP assay kit mentioned above.

PTP1B [3] = test: Western blot of PTP1B protein expression in mHypoE-46 neurons; assay type: cell-based, Mouse; details: for PTP1B protein expression: 10 h after TNFα 8 h
Experimental: as §1
The method was described in our previous study with modifications, mHypoE-46 neurons were washed with ice-cold PBS and lysed in NP-40 lysis buffer (Invitrogen Australia Pty Ltd, Mulgrave, VIC) containing a protease inhibitor cocktail, beta-glycerophosphate and phenylmethanesulfonyl fluoride (PMSF) (Sigma, Castle Hill, NSW). Cell lysates were centrifuged at 14000 rpm for 10 min at 4 °C. The supernatants were collected and protein concentrations were determined using the DC assay (Bio-Rad Laboratories, Gladesville, NSW) according to the manufacturer’s instructions. Equal amounts of protein (10 μg) were separated on 4–12% Bis-Tris gels (Bio-Rad Laboratories, Gladesville, NSW,) using SDS-PAGE. Following electrophoresis (120 V for 2 h), the proteins were transferred to polyvinylidene difluoride membranes (100 V for 1 h). Membranes were blocked in 5% bovine serum albumin (BSA), followed by incubation with the primary antibodies PTP1B (sc-1718, 1:500, Santa Cruz Biotechnology Inc, Dallas, TX) in 1% BSA overnight at 4 °C. […] The bands corresponding to the proteins of interest were scanned and densitometrically analysed using the automatic imaging analysis system Quantity One (Bio-Rad Laboratories, Gladesville, NSW). All quantitative analyses were normalised to β-actin.

PTP1B [4] = biological target: T3, PTP1B (Homo sapiens, UniProt P18031); details: cited from earlier work; for IC50: read-out: IC50 PTP1B
T3 sequence (P18031 1-435): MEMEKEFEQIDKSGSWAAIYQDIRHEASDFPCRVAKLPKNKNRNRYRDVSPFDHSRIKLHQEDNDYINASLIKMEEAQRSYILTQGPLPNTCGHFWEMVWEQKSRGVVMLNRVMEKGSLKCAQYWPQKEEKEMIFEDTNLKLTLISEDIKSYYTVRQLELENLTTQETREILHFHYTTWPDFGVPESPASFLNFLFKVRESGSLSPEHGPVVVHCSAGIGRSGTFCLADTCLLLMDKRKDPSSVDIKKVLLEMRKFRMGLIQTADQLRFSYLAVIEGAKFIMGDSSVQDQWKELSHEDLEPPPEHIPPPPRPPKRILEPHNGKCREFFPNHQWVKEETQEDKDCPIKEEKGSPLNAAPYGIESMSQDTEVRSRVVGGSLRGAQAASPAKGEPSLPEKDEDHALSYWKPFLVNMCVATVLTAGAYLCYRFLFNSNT

PTP1B [5] = biological target: T3, PTP1B; test: PTP1B inhibition kinetics assay (Lineweaver-Burk, pNPP); assay type: biochemical; details: Lineweaver-Burk plot; for mode of inhibition of PTP1B: 6 pNPP and 4 compound concentrations
Experimental: The Lupeol group was used as a control group. The absorbance at 405 nm was detected by a spectraMAX 384 microplate spectrophotometer twice every minute for a total of 15 min. Michaelis-Menten constant (Km) and maximum velocity (Vmax) of PTP1B were determined via Lineweaver-Burk plots using the GraphPad Prism 5 program (GraphPad Software Inc, La Jolla, CA).

PTP1B [6] = biological target: T3, PTP1B; test: Estimation of Ki and binding free energy from experimental IC50 (IC50-to-Ki converter)
[7] = pNPP assay, 25 °C, read-out: IC50 TCPTP

| Compound | IC50 [1, 7] | Fold changes (TCPTP IC50 / PTP1B IC50) [1] | mode of inhibition of PTP1B (literature) (PTP1B [4]) | IC50 (PTP1B [4]) | IC50 [1] | Km value of PTP1B in presence of compound (PTP1B [5]) | Vmax value of PTP1B in presence of compound (PTP1B [5]) | mode of inhibition of PTP1B (PTP1B [5]) | Ki (PTP1B [6]) | other results |
| --- | --- | --- | --- | --- | --- | --- | --- | --- | --- | --- |
| CCc1oc2cc(S(=O)(=O)Nc3ccc(S(=O)(=O)Nc4nccs4)cc3)ccc2c1C(=O)c1cc(Br)c(O)c(Br)c1 [Compound 3, reference compound] | 62.7 µM | – | – | – | – | – | – | – | – | – |
| TNFα | – | – | – | – | – | – | – | – | – | increase of PTP1B activity (PTP1B [2]; TNFα 20 ng/ml, 8 h): 1.5 fold; increase of PTP1B expression (PTP1B [3]; TNFα 20 ng/ml, 8 h): 1.75 fold |
| C=C(C)[C@@H]1CC[C@]2(C)CC[C@]3(C)[C@H](CC[C@@H]4[C@@]5(C)CCC(=O)C(C)(C)[C@@H]5CC[C@]43C)[C@@H]12 [Lupenone, lupenone] | 91.5 µM | 6 fold | non-competitive inhibitors | 13.7 µM | – | – | – | – | – | – |
| C=C(C)[C@@H]1CC[C@]2(CO)CC[C@]3(C)[C@H](CC[C@@H]4[C@@]5(C)CC[C@H](O)C(C)(C)[C@@H]5CC[C@]43C)[C@@H]12 [Betulin, betulin] | – | 7 fold | – | 15.3 µM | 119 µM | altered Km value | decreased Vmax value | mixed-type inhibition | 15.3 µM | – |
| C=C(C)[C@@H]1CC[C@]2(C(=O)O)CC[C@]3(C)[C@H](CC[C@@H]4[C@@]5(C)CC[C@H](O)C(C)(C)[C@@H]5CC[C@]43C)[C@@H]12 [Betulinic acid, betulinic acid] | 124 µM | 81 fold | – | – | – | constant Km value | decreased Vmax value | non-competitive inhibitor | – | inhibition of PTP1B enzyme activity (PTP1B [2]; betulinic acid 7.5 μM, 10 h after TNFα 8 h): significantly inhibited; inhibition at 7.5 µM (PTP1B [2]; betulinic acid 7.5 μM, 10 h after TNFα 8 h, read-out: inhibition of PTP1B enzyme activity): 35%; PTP1B protein expression (PTP1B [3]; betulinic acid 7.5 μM): slightly decreased; also recorded: do not significantly decrease; Ki (PTP1B [6]; IC50-to-Ki converter, [E] 0.01, [S] 20000 µM, read-out: Constant of inhibition [Ki]): 1.5 µM |
| C=C(C)[C@@H]1CC[C@]2(C)CC[C@]3(C)[C@H](CC[C@@H]4[C@@]5(C)CC[C@H](O)C(C)(C)[C@@H]5CC[C@]43C)[C@@H]12 [Lupeol, lupeol] | – | 22 fold | non-competitive inhibitor | 5.6 µM | 126 µM | – | – | – | 5.6 µM | inhibition of PTP1B enzyme activity (PTP1B [2]; lupeol 28 μM, 10 h after TNFα 8 h): significantly inhibited; inhibition at 28 µM (PTP1B [2]; lupeol 28 μM, 10 h after TNFα 8 h, read-out: inhibition of PTP1B enzyme activity): 35%; PTP1B protein expression (PTP1B [3]; lupeol 28 μM): slightly decreased; also recorded: do not significantly decrease |
